Laboratory results reported in patent US20220288075A1, “METHOD AND COMPOSITION FOR TREATING PAIN” (ACADEMIA SINICA, priority 2019, published 2022).

What was measured:
RISS mice = assay: RISS (repeated and intermittent sound stress) model, sensory testing (von Frey, muscle withdrawal threshold, Hargreaves); format: in vivo; conditions: i.p. injection, post-RISS day 1 and 4; FIG. 1G
Description: Sound stressors were applied as described^14, 43 with modification. Mice were placed (3 per cage) in a 20×30×15 cm bedding cage, which was kept 25 cm below a speaker, inside a 40×50×35 cm sound-insulated box. A speaker emitted pure tones at 5 frequencies (5, 11, 13, 15 and 19 kHz) with random amplitudes varied over time for each frequency (0, 20, 60, 90, and 100 dB sound). Each tone stimulus lasted for 5 or 10 sec in random order, and mice were stimulated continuously without interval. The sound stressors continued for 30 min as a set. In the original SS (sound stress) protocol, a set of 30-min stimuli was given once a day on days 1, 3, and 4 (FIG. 1A)^14. The RISS model intensified the stress protocol by increasing the stimulus frequency: a set of sound stimulus was repeated every 3 hours for 6 times overnight (from 16:00 to 10:00), followed by resting silence for 6 hours (from 10:00 to 16:00). The procedure was repeated on days 1, 3, and 4 as for the SS protocol. The control groups were placed in similar chambers for 4 days without stress exposure. Both groups of mice had access to food and water freely during the stress period. After the stimulus procedure, mice were returned to their original home cages in the animal care facility. In both the SS and RISS protocols, the day after completing the stress stimuli is called P0; the post-stress day 1, P1; and so on. In the experimental design of the […] single-day stimuli of intermittent SS (SISS), the day after SISS is called P′0; the post-stress day 1, P′1; and so on.
(§1) Animals were placed on an elevated mesh platform, and a 0.2-mN von Frey filament was applied to the plantar surface of both hind paws. A positive response was defined as lifting, shaking, guarding, or licking paws when the stimulus was applied. For each paw, the filament was applied 5 times at 30-sec intervals.
Mice were placed individually in Acrylic cubicles mounted on a glass surface maintained at 30° C. The test was performed after acclimatization. The thermal stimulus of the radiant heat was then applied to the plantar surface of each hind paw. Each mouse was tested in three sequential trials with an interval of 2-3 min. The assay cutoff was set at 30 sec to prevent tissue damage. Paw withdrawal latencies were calculated as the mean of three measures.
Muscle withdrawal thresholds were evaluated as described^46. […]
Analgesic drugs: Pregabalin (0.3, 1, 3 or 10 mg/kg bodyweight, i.p.; Toronto Research Chemicals), morphine (0.3, 1, 3 or 10 mg/kg bodyweight, i.p.), diclofenac (1, 3 or 10 mg/kg bodyweight, i.p.; Sigma-Aldrich) or vehicle (0.9% saline) was administered, and the effect of each drug was evaluated by testing 6 mice. […]

[1] = test system: mice with repeated LPC16:0 injection; assay: Repeated LPC16:0 injection model, drug effects by von Frey test; format: in vivo; conditions: for analgesic effect in repeated LPC16:0 injection model (von Frey): intraperitoneal administration, FIG. 10E
Method: (§2) The chronic pain model was based on the repeated acid injection model protocol by Sluka et al.^44, and LPC16:0 was used for pain induction to replace acidic saline injection. Mice received in the left gastrocnemius muscle two intramuscular injections (1 day apart) of 10 μL neutral saline solution (pH 7.4; buffered with HEPES) containing vehicle (0.96% ethanol) or LPC16:0 (4.8 nmol; Avanti Polar Lipids Inc)^30. In the experiment of pharmacological inhibition of ASIC3, APETx2 (50 pmole; Alomone, Israel), a selective ASIC3 antagonist, was co-injected with LPC16:0.
as §1
Analgesic drugs: Pregabalin (0.3, 1, 3 or 10 mg/kg bodyweight, i.p.; Toronto Research Chemicals), morphine (0.3, 1, 3 or 10 mg/kg bodyweight, i.p.), diclofenac (1, 3 or 10 mg/kg bodyweight, i.p.; Sigma-Aldrich) or vehicle (0.9% saline) was administered, and the effect of each drug was evaluated by testing 6 mice. Sensory testing was carried out at 30 min and 1, 3 and 24 hours after injection of vehicle or drugs, with the experimenter blinded to the dose of test drugs. […] The 3Rs stand for Replace, Reduce, Refine and represent a responsible approach to animal testing. The goal is to replace animal experiments whenever possible. In addition, the aim is to keep the number of animal experiments as low as possible and to only use the necessary number of animals. Lastly, it is vital to ensure that the distress inflicted upon the animals is as low as possible. Therefore, all the pharmacological studies were conducted on post-RISS day 1 and day 4 (3 days apart, within 1 week after RISS). Mice of post-stress day 1 and day 4 were assigned randomly but equally to each tested dosage for counterbalance. During testing, the experimenter was blind to the individual treatment assignments.
Intrathecal injection was conducted through transcutaneous injection with a 30-gauge needle at the L5-6 dorsal spinal process under anesthesia of isoflurane (1.5%).

pERK = pERK expression of L4 DRG neurons after intramuscular LPC16:0 injection; format: in vivo, mice
Method: as §2
Immunofluorescence staining. Animals were euthanized with urethane ([…], i.p.) and perfused with 4% paraformaldehyde (PFA) at P0. L4 dorsal root ganglia (DRG) were extracted and immediately post-fixed in 4% PFA for 60 min, and then replaced with 30% sucrose overnight. DRG were embedded in OCT compound and sectioned (12 μm) with a Leica cryostat. […] Images were acquired and quantified under a Carl Zeiss fluorescence microscope with a 10× objective lens. All images from the same experiment were acquired with the same settings, including fluorescence intensity, acquisition time, and image resolution. The immunoreactivity of pERK and the overlap between pERK and neuron markers (SP, CGRP, IB4 or N52) were assessed using Fiji (ImageJ, NIH) software, with the experimenter blinded to treatment and/or genotype. […]

WT mice = assay: LPC16:0 / lipid injection in wild-type mice, mechanical hypersensitivity by von Frey test; format: in vivo; conditions: for long-lasting hyperalgesia / priming-like effect after repeated intramuscular injection: two i.m. injections, 4.8 nmol, 10C

Row | Compound | analgesic effect on RISS-induced hyperalgesia (mechanical, muscle, thermal) (RISS mice) | analgesic effect in repeated LPC16:0 injection model (von Frey) [1] | long-lasting hyperalgesia / priming-like effect after repeated intramuscular injection (WT mice; FIG. 3J) | other results
1 | CC(C)C[C@H](CN)CC(=O)O [pregabalin] | dose-dependently reversed hyperalgesia | responded |  | 
2 | APETx2 |  |  |  | chronic hypersensitivity after repeated LPC16:0 injection ([1]; APETx2 50 pmole co-injected i.m. with LPC16:0, FIG. 3K left): significantly reduced; transient (acute) hyperalgesia after LPC16:0 injection ([1]; APETx2 co-injected i.m. with LPC16:0, vs vehicle, FIG. 3K left): transient hyperalgesia was observed; LPC16:0 injection-induced pERK expression in DRG neurons (pERK; APETx2 co-injected with LPC16:0, FIG. 10F, 10G): reduced
3 | O=C(O)Cc1ccccc1Nc1c(Cl)cccc1Cl [diclofenac] | no significant analgesic effects | not |  | 
4 | N#CC(=C(/N)Sc1ccccc1N)/C(C#N)=C(\N)Sc1ccccc1N [U0126] |  |  |  | LPC16:0-induced acute hyperalgesia ([1]; mouse, in vivo): prevented; chronic hyperalgesia induced by the second LPC16:0 injection ([1]; mouse, in vivo): impeded the development of chronic hyperalgesia
5 | CCCCCCCCCCCCCCCC(=O)OC[C@@H](O)COP(=O)([O-])OCC[N+](C)(C)C [LPC16:0, lysophosphatidylcholine (LPC) 16:0] |  |  | induced long-lasting hyperalgesic changes | hyperalgesic responses after intramuscular injection, dose dependence (WT mice; 4.8, 1.6 and 0.48 nmol i.m., FIG. 3I): dose-dependently evoked hyperalgesic responses; hyperalgesia after single intramuscular injection (WT mice; single i.m. injection, FIG. 3J): induced transient bilateral hyperalgesia; hyperalgesia after repeated intraplantar injection (WT mice; two intraplantar injections, 4.8 nmole, FIG. 3J right): only induced transient hyperalgesia; pERK expression in L4 DRG neurons after LPC injection vs vehicle (pERK; i.m. injection, FIG. 10A, 10B): increased
6 | CCCCCCCCCCCCCCCCCC(=O)OC[C@@H](O)COP(=O)([O-])OCC[N+](C)(C)C [LPC18:0] |  |  | not observed | 
7 | CCCCCCCCCCCCC/C=C/[C@@H](O)[C@H](COP(=O)([O-])OCC[N+](C)(C)C)NC(=O)CCCCCCCCCCCCCCCCC [SM(d18:1/18:0)] |  |  | not observed | 
8 | CN1CC[C@]23c4c5ccc(O)c4O[C@H]2[C@@H](O)C=C[C@H]3[C@H]1C5 [morphine] | no significant analgesic effects | not |  | 
